Reference: patent US12703729B2, “GIP agonist compounds and methods” (Zealand Pharma A/S, priority 2014, dated 2026)
Starred links: 1 amine or outer side, 2 acyl side, 3 side chain; linkers in the order of their positions; H or OH if unused. Non-standard residues stand in square brackets, D forms with d. Residues, ends and D or L forms follow the SMILES beside them. Groups on a side chain read outwards from the residue. *: point of attachment. X1 = O=C(O)CCCCCCCCCCCCCCCCCCC(=O)N1CCN(CC(=O)*)CC1; C20 diacid = O=C(O)CCCCCCCCCCCCCCCCCCC(=O)*; γGlu = O=C(O)[C@H](CCC(=O)[*:2])N[*:1]; AEEA = NCCOCCOCC(=O)O; Aib = CC(C)(N)C(=O)O

Columns and labels:
[1] = biological target: human GLP-1 receptor (GLP-1R) (Homo sapiens, UniProt P43220); assay: Activity assay at human GLP-1 receptor, cAMP induction (AlphaScreen), Example 3
human GIP R = biological target: T1, human GIP R (Homo sapiens, UniProt P48546); assay: cell-based
T1 sequence (P48546 22-466): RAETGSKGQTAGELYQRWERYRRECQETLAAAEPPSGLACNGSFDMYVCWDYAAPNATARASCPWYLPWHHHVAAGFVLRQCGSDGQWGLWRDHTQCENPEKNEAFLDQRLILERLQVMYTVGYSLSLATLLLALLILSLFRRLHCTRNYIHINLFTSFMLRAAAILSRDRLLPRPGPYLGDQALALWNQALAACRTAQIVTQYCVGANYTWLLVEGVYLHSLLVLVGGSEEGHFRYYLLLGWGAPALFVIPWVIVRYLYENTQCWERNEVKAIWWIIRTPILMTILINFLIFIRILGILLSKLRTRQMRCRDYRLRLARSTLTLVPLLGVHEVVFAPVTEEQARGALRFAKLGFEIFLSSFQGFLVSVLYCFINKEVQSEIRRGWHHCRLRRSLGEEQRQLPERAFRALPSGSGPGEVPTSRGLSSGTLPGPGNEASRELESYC

in vivo = details: male, C57BL/6J, mouse; for bioavailability: Bioavailability s.c.; for half-life: 200 nmol/kg
[2] = biological target: T2, human GIP receptor (GIP R) (Homo sapiens, UniProt P48546); assay: Activity assay at human GIP receptor, cAMP induction (AlphaScreen), Example 3
T2 sequence (P48546 22-466): T1 sequence (P48546 22-466)

human GLP-1 receptor (GLP-1R), sequence (P43220 24-463): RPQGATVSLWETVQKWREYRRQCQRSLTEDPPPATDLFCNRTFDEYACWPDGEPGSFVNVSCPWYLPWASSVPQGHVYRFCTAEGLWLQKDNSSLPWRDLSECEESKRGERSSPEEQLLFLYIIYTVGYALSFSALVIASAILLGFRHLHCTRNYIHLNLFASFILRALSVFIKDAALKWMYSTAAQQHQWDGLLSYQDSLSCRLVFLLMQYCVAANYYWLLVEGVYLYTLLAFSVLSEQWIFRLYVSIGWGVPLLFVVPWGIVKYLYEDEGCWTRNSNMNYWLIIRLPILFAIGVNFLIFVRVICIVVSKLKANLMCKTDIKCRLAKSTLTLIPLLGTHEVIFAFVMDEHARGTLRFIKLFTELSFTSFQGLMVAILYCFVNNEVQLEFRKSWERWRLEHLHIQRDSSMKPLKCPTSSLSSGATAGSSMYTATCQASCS

Q: Which results are given for CC[C@H](C)[C@H](NC(=O)[C@H](CO)NC(=O)[C@H](Cc1ccc(O)cc1)NC(=O)[C@H](CC(=O)O)NC(=O)[C@H](CO)NC(=O)[C@@H](NC(=O)[C@H](Cc1ccccc1)NC(=O)[C@@H](NC(=O)CNC(=O)[C@H](CCC(=O)O)NC(=O)C(C)(C)NC(=O)[C@@H](N)Cc1ccc(O)cc1)[C@@H](C)O)[C@@H](C)CC)C(=O)N[C@@H](CCC(=O)O)C(=O)N[C@@H](CC(C)C)C(=O)N[C@@H](CC(=O)O)C(=O)N[C@@H](CCCCN)C(=O)N[C@@H](CCCCNC(=O)COCCOCCNC(=O)COCCOCCNC(=O)CC[C@H](NC(=O)CCCCCCCCCCCCCCCCCCC(=O)O)C(=O)O)C(=O)N[C@@H](C)C(=O)N[C@@H](C)C(=O)N[C@@H](CCC(N)=O)C(=O)N[C@@H](CC(=O)O)C(=O)N[C@@H](Cc1ccccc1)C(=O)N[C@H](C(=O)N[C@@H](CC(N)=O)C(=O)N[C@@H](Cc1c[nH]c2ccccc12)C(=O)N[C@@H](CC(C)C)C(=O)N[C@@H](CC(C)C)C(=O)N[C@@H](C)C(=O)N[C@@H](CCC(N)=O)C(=O)NCC(=O)N1CCC[C@H]1C(=O)N[C@@H](CO)C(=O)N[C@@H](CO)C(=O)NCC(=O)N[C@@H](C)C(=O)N1CCC[C@H]1C(=O)N1CCC[C@H]1C(=O)N1CCC[C@H]1C(=O)N[C@@H](CO)C(N)=O)C(C)C [Compound 10] (H-Y[Aib]EGTFISDYSIELDKK([AEEA-AEEA-γGlu-C20 diacid])AAQDFVNWLLAQGPSSGAPPPS-NH2)?
A: EC50 [1]: > 10000 pM; EC50 (human GIP R): 7 pM; bioavailability (in vivo): 100%; half-life (in vivo; iv, Terminal elimination half-life T½ i.v.): 16.9 h; Tmax (in vivo; sc): 4 h; half-life (in vivo; sc, Terminal elimination half-life T½ s.c.): 21.1 h; bioavailability (in vivo; sc, repeated test): 77%; EC50 [2]: 8 pM

Q: Which EC50 [1] does the source give for CC[C@H](C)[C@H](NC(=O)[C@H](Cc1ccccc1)NC(=O)[C@H](C)NC(=O)[C@H](CCCNC(=N)N)NC(=O)[C@H](CCC(N)=O)NC(=O)[C@H](C)NC(=O)[C@H](CCCCNC(=O)COCCOCCNC(=O)COCCOCCNC(=O)CC[C@H](NC(=O)CCCCCCCCCCCCCCCCCCC(=O)O)C(=O)O)NC(=O)[C@H](CCCCN)NC(=O)[C@H](CC(=O)O)NC(=O)[C@H](CC(C)C)NC(=O)[C@H](CCC(=O)O)NC(=O)[C@@H](NC(=O)[C@H](CO)NC(=O)[C@H](Cc1ccc(O)cc1)NC(=O)[C@H](CC(=O)O)NC(=O)[C@H](CO)NC(=O)[C@@H](NC(=O)[C@H](Cc1ccccc1)NC(=O)[C@@H](NC(=O)CNC(=O)[C@H](CCC(=O)O)NC(=O)[C@@H](C)NC(=O)[C@@H](N)Cc1ccc(O)cc1)[C@@H](C)O)[C@@H](C)CC)[C@@H](C)CC)C(=O)N[C@@H](CCC(=O)O)C(=O)N[C@@H](Cc1c[nH]c2ccccc12)C(=O)N[C@@H](CC(C)C)C(=O)N[C@@H](CC(C)C)C(=O)N[C@@H](C)C(=O)N[C@@H](CCC(N)=O)C(=O)NCC(=O)N1CCC[C@H]1C(=O)N[C@@H](CO)C(=O)N[C@@H](CO)C(=O)NCC(=O)N[C@@H](C)C(=O)N1CCC[C@H]1C(=O)N1CCC[C@H]1C(=O)N1CCC[C@H]1C(=O)N[C@@H](CO)C(N)=O [Compound 36] (H-Y[dA]EGTFISDYSIELDKK([AEEA-AEEA-γGlu-C20 diacid])AQRAFIEWLLAQGPSSGAPPPS-NH2) here?
A: > 10000 pM

Q: And the EC50 (human GIP R)?
A: 6 pM

Q: And the EC50 [2]?
A: 6 pM

Q: What does the source list for CC[C@H](C)[C@H](NC(=O)[C@H](CCCCN)NC(=O)[C@H](CC(=O)O)NC(=O)[C@H](CC(C)C)NC(=O)[C@H](CCC(=O)O)NC(=O)[C@@H](NC(=O)[C@H](CO)NC(=O)[C@H](Cc1ccc(O)cc1)NC(=O)[C@H](CC(=O)O)NC(=O)[C@H](CO)NC(=O)[C@@H](NC(=O)[C@H](Cc1ccccc1)NC(=O)[C@@H](NC(=O)CNC(=O)[C@H](CCC(=O)O)NC(=O)[C@@H](C)NC(=O)[C@@H](N)Cc1ccc(O)cc1)[C@@H](C)O)[C@@H](C)CC)[C@@H](C)CC)C(=O)N[C@@H](C)C(=O)N[C@@H](C)C(=O)N[C@@H](CCC(N)=O)C(=O)N[C@@H](CC(=O)O)C(=O)N[C@@H](Cc1ccccc1)C(=O)N[C@H](C(=O)N[C@@H](CCC(=O)O)C(=O)N[C@@H](Cc1c[nH]c2ccccc12)C(=O)N[C@@H](CC(C)C)C(=O)N[C@@H](CC(C)C)C(=O)N[C@@H](C)C(=O)NCC(=O)N1CCC[C@H]1C(=O)N[C@@H](CO)C(=O)N[C@@H](CO)C(=O)NCC(=O)N[C@@H](C)C(=O)N1CCC[C@H]1C(=O)N1CCC[C@H]1C(=O)N1CCC[C@H]1C(=O)N[C@@H](CO)C(=O)N[C@@H](CCCCNC(=O)COCCOCCNC(=O)COCCOCCNC(=O)CN1CCN(C(=O)CCCCCCCCCCCCCCCCCCC(=O)O)CC1)C(N)=O)[C@@H](C)CC [Compound 37] (H-Y[dA]EGTFISDYSIELDKIAAQDFIEWLLAGPSSGAPPPSK([AEEA-AEEA-X1])-NH2)?
A: EC50 [1]: > 10000 pM; EC50 (human GIP R): 16 pM; EC50 [2]: 6 pM

Q: For CC[C@H](C)[C@H](NC(=O)[C@H](Cc1ccccc1)NC(=O)[C@H](CC(=O)O)NC(=O)[C@H](CCC(N)=O)NC(=O)[C@H](C)NC(=O)[C@H](C)NC(=O)[C@H](CCCCNC(=O)COCCOCCNC(=O)COCCOCCNC(=O)CC[C@H](NC(=O)CCCCCCCCCCCCCCCCCCC(=O)O)C(=O)O)NC(=O)[C@H](CCCCN)NC(=O)[C@H](CC(=O)O)NC(=O)[C@H](CC(C)C)NC(=O)[C@H](CCC(=O)O)NC(=O)[C@@H](NC(=O)[C@H](CO)NC(=O)[C@H](Cc1ccc(O)cc1)NC(=O)[C@H](CC(=O)O)NC(=O)[C@H](CO)NC(=O)[C@@H](NC(=O)[C@H](Cc1ccccc1)NC(=O)[C@@H](NC(=O)CNC(=O)[C@H](CCC(=O)O)NC(=O)C(C)(C)NC(=O)[C@@H](N)Cc1ccc(O)cc1)[C@@H](C)O)[C@@H](C)CC)[C@@H](C)CC)C(=O)N[C@@H](CCC(=O)O)C(=O)N[C@@H](Cc1c[nH]c2ccccc12)C(=O)N[C@@H](CC(C)C)C(=O)N[C@@H](CC(C)C)C(=O)N[C@@H](C)C(=O)N[C@@H](CCC(N)=O)C(=O)NCC(=O)N1CCC[C@H]1C(=O)N[C@@H](CO)C(=O)N[C@@H](CO)C(=O)NCC(=O)N[C@@H](C)C(=O)N1CCC[C@H]1C(=O)N1CCC[C@H]1C(=O)N1CCC[C@H]1C(=O)N[C@@H](CO)C(N)=O [Compound 38] (H-Y[Aib]EGTFISDYSIELDKK([AEEA-AEEA-γGlu-C20 diacid])AAQDFIEWLLAQGPSSGAPPPS-NH2), which EC50 [1] is on record?
A: > 100000 pM

Q: What about the EC50 (human GIP R) of the same compound?
A: 1 pM

Q: And the EC50 [2]?
A: 17 pM

Q: For CC[C@H](C)[C@H](NC(=O)[C@H](Cc1ccccc1)NC(=O)[C@H](CC(=O)O)NC(=O)[C@H](CCC(N)=O)NC(=O)[C@H](C)NC(=O)[C@H](C)NC(=O)[C@H](CCCCNC(=O)COCCOCCNC(=O)COCCOCCNC(=O)CC[C@H](NC(=O)CCCCCCCCCCCCCCCCCCC(=O)O)C(=O)O)NC(=O)[C@H](CCCCN)NC(=O)[C@H](CC(=O)O)NC(=O)[C@H](CC(C)C)NC(=O)[C@H](CCC(=O)O)NC(=O)[C@@H](NC(=O)[C@H](CO)NC(=O)[C@H](Cc1ccc(O)cc1)NC(=O)[C@H](CC(=O)O)NC(=O)[C@H](CO)NC(=O)[C@@H](NC(=O)[C@H](Cc1ccccc1)NC(=O)[C@@H](NC(=O)CNC(=O)[C@H](CCC(=O)O)NC(=O)C(C)(C)NC(=O)[C@@H](N)Cc1ccc(O)cc1)[C@@H](C)O)[C@@H](C)CC)[C@@H](C)CC)C(=O)N[C@@H](CC(N)=O)C(=O)N[C@@H](Cc1c[nH]c2ccccc12)C(=O)N[C@@H](CC(C)C)C(=O)N[C@@H](CC(C)C)C(=O)N[C@@H](C)C(=O)N[C@@H](CCC(N)=O)C(=O)NCC(=O)N1CCC[C@H]1C(=O)N[C@@H](CO)C(=O)N[C@@H](CO)C(=O)NCC(=O)N[C@@H](C)C(=O)N1CCC[C@H]1C(=O)N1CCC[C@H]1C(=O)N1CCC[C@H]1C(=O)N[C@@H](CO)C(N)=O [Compound 39] (H-Y[Aib]EGTFISDYSIELDKK([AEEA-AEEA-γGlu-C20 diacid])AAQDFINWLLAQGPSSGAPPPS-NH2), which EC50 [1] is on record?
A: > 100000 pM

Q: What about the EC50 (human GIP R) of the same compound?
A: 7 pM

Q: What about the EC50 [2] of the same compound?
A: 1 pM

Q: With CC[C@H](C)[C@H](NC(=O)[C@H](Cc1ccccc1)NC(=O)[C@H](C)NC(=O)[C@H](CCC(N)=O)NC(=O)[C@H](C)NC(=O)[C@H](C)NC(=O)[C@H](CCCCNC(=O)COCCOCCNC(=O)COCCOCCNC(=O)CC[C@H](NC(=O)CCCCCCCCCCCCCCCCCCC(=O)O)C(=O)O)NC(=O)[C@H](CCCCN)NC(=O)[C@H](CC(=O)O)NC(=O)[C@H](CC(C)C)NC(=O)[C@H](CCC(=O)O)NC(=O)[C@@H](NC(=O)[C@H](CO)NC(=O)[C@H](Cc1ccc(O)cc1)NC(=O)[C@H](CC(=O)O)NC(=O)[C@H](CO)NC(=O)[C@@H](NC(=O)[C@H](Cc1ccccc1)NC(=O)[C@@H](NC(=O)CNC(=O)[C@H](CCC(=O)O)NC(=O)C(C)(C)NC(=O)[C@@H](N)Cc1ccc(O)cc1)[C@@H](C)O)[C@@H](C)CC)[C@@H](C)CC)C(=O)N[C@@H](CCC(=O)O)C(=O)N[C@@H](Cc1c[nH]c2ccccc12)C(=O)N[C@@H](CC(C)C)C(=O)N[C@@H](CC(C)C)C(=O)N[C@@H](C)C(=O)N[C@@H](CCC(N)=O)C(=O)NCC(=O)N1CCC[C@H]1C(=O)N[C@@H](CO)C(=O)N[C@@H](CO)C(=O)NCC(=O)N[C@@H](C)C(=O)N1CCC[C@H]1C(=O)N1CCC[C@H]1C(=O)N1CCC[C@H]1C(=O)N[C@@H](CO)C(N)=O [Compound 40] as the compound, how does the EC50 [1] read?
A: > 10000 pM

Q: What about the EC50 (human GIP R) of the same compound?
A: 10 pM

Q: And the EC50 [2]?
A: 7 pM
